Measured values as given in ChEMBL document CHEMBL1201862, “PubChem BioAssay data set” (2004).
The source made the active and inactive calls.

Columns and labels:
[1] = biological target: T1, High affinity choline transporter 1 (Homo sapiens, UniProt Q9GZV3); test: CHT inhibitors, dose response, cell-based, 5-point CRC, membrane potential dye (AID 504840); type: functional
T1 sequence (Q9GZV3 whole entry): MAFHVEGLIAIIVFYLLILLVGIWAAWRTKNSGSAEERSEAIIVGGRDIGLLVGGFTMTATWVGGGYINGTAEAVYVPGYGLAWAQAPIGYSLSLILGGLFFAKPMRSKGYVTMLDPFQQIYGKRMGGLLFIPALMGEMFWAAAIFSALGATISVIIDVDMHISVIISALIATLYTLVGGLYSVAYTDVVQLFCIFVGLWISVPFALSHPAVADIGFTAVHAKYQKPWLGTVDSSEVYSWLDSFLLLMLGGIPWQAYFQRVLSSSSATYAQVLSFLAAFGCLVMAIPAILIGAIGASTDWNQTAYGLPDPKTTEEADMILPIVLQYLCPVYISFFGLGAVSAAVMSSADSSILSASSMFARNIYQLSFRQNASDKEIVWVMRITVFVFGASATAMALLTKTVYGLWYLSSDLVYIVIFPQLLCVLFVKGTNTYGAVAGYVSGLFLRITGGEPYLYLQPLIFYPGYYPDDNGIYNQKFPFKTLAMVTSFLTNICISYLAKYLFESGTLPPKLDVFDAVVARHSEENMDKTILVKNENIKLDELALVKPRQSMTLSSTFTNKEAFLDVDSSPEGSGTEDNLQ

[2] = biological target: T2, Short transient receptor potential channel 4 (Mus musculus, UniProt Q9QUQ5); test: mouse TRPC4 channel activators, dose response, cell-based, HEK293 TRPC4/mu-opioid, Fluo-4 calcium (AID 434937); type: functional
T2 sequence (Q9QUQ5 whole entry): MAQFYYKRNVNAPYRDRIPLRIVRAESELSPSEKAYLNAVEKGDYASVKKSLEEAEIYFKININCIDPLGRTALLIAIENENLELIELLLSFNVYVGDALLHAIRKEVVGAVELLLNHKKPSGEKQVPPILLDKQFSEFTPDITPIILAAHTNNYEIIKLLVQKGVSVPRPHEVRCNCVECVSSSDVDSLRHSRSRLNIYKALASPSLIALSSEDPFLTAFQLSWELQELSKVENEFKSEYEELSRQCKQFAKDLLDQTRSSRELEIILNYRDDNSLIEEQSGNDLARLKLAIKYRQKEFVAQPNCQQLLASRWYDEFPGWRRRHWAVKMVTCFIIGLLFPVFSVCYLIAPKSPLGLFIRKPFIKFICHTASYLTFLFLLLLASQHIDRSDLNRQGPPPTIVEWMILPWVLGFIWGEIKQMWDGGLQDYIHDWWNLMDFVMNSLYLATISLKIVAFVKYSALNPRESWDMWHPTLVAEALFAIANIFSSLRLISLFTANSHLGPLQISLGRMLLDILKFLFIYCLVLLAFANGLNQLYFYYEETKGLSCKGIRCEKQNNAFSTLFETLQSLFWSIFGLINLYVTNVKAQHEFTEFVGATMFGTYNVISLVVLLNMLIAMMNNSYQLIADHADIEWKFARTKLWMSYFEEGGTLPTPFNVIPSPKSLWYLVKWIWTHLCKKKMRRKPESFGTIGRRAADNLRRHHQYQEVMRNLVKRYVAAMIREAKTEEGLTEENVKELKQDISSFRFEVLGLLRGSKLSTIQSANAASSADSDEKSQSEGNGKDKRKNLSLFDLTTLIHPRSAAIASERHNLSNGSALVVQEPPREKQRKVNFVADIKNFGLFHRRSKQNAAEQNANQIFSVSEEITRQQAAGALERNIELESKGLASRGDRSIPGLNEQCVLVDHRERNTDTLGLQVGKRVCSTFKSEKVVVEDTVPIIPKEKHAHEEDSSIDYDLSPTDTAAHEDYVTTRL

cells [3] = type: functional, cell-based
cells [4] = type: functional, cell-based; remark: listed apart in the source
[5] = inhibitors of HIV Env-driven cell fusion, dose response, cherry-pick (AID 652057); type: functional, cell-based
[6] = inhibitors of clade B AD8 Env fusion, dose response, cell-based, cherry-pick (AID 652062); type: functional;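 note: luciferase signal from cell-cell fusion driven by HIV-1 clade B AD8 Env; potency is for inhibitors of fusion seen as a drop in luminescence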
BJ [7] = test: cytotoxicity toward BJ-TERT fibroblasts, dose response, cell-based, RAS-independent, luminescence (AID 1933); type: functional; settings: Homo sapiens
BJ [8] = test: cells; type: functional, cell-based; settings: Homo sapiens
BJ [9] = test: cytotoxicity toward BJ-TERT-LT-ST fibroblasts, dose response, cell-based, RAS-independent, luminescence (AID 1935); type: functional; settings: Homo sapiens;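 note: BJ fibroblasts immortalized with TERT plus LT and ST oncogenes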
[10] = cytotoxicity toward DRD oncogenic fibroblasts, dose response, cell-based, non-viral oncogenic, luminescence (AID 1934); type: functional; settings: Homo sapiens
[11] = Luminescence Cell-Based Dose Retest to Confirm Inhibitors of Cancer Stem Cells. [Related pubchem assays (depositor defined):AID2717, AID2721]; type: functional; settings: Homo sapiens
BJ [12] = test: cytotoxicity toward Ras-transformed BJeLR fibroblasts, dose response, cell-based, alamar blue fluorescence, cherrypicked samples (AID 2631); type: functional; settings: Homo sapiens;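 note: confirmatory dose-response assay in RAS-dependent BJ fibroblasts engineered with TERT, LT and ST, with cytotoxicity read by fluorescence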
[13] = Shn3 3'UTR reporter inhibitors, dose response, cell-based, Clone20 osteoblasts, firefly luciferase, cherry-picked (AID 624132); type: functional;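 note: firefly luciferase luminescence from reporter carrying the Shn3 3'UTR in osteoblasts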
[14] = control 3'UTR Renilla luciferase suppression, dose response, counter-screen for Shn3 inhibitor project, cell-based, Clone20-Shn3RL, cherry-picked (AID 624133); type: functional
[15] = intracellular Trypanosoma cruzi inhibitors in host cells – cell-based, plate reader, cherry-pick samples, set 3, dose response (AID 651818); type: functional;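 note: compounds incubated with infected cells for about four days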
[16] = P. falciparum Dd2 growth inhibitors, dose response, SYBR Green, cherry-picked samples (AID 1159567); type: functional, cell-based
[17] = tested on: Streptococcus sp. 'group A'; test: growth inhibition of control SK(-) GAS strain, dose response, counter-screen for streptokinase expression inhibitor project, luminescence, kanamycin, BacTiterGlo, confirmation (AID 1900); type: functional, organism-based
Streptococcus = test: Group A Streptococcus viability loss, dose response, counter-screen for streptokinase expression inhibitor project, luminescence, BacTiterGlo (AID 1915); type: functional, organism-based;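 note: potency for reduction of bacterial viability or growth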

O=C(Nc1nc2ccc(S(=O)(=O)N3CCCCC3)cc2s1)c1cccnc1
IC50 [1]: 13.2 µM (active)

O=C1NC(=S)S/C1=C\c1coc2ccccc2c1=O
IC50 [1]: 14.5 µM (active)

O=C1OC(c2ccc([N+](=O)[O-])cc2)=N/C1=C/N1CC2CC(C1)c1cccc(=O)n1C2 (stereo unspecified)
EC50 [2]: 10.6 µM (active)

COc1ccc(-c2nc3ccc(C(=O)NCCCN4CCOCC4)cc3nc2-c2ccc(OC)cc2)cc1
IC50 [1]: 13.2 µM (active)

NN=C(S)NCCc1ccccc1
IC50 (cells [3]): > 29.9 µM (inactive) | EC50 (cells [4]): > 29.9 µM (inactive)

NC(=O)CC(NC(=O)Cc1ccc(Cl)cc1)c1ccc(NCCc2ccccc2F)c([N+](=O)[O-])c1 (stereo unspecified)
IC50 (cells [3]): > 29.9 µM (inactive) | EC50 (cells [4]): > 29.9 µM (inactive)

Clc1ccc(-c2noc(CSc3nnc(-c4ccncc4)n3-c3ccccc3)n2)cc1
AC50 [5]: 25 µM (active) | AC50 [6]: 4.51 µM (active)

COc1ccccc1/C=C1\SC(=S)N(CCC(=O)NCCCn2ccnc2)C1=O
EC50 (BJ [7]): > 150 µM (not active) | EC50 (BJ [8]): > 150 µM (not active) | EC50 (BJ [9]): > 75 µM (inconclusive) | EC50 [10]: > 150 µM (not active) | AC50 [11]: 6.05 µM (active) | EC50 (BJ [12]): > 133 µM (inactive)

O=[N+]([O-])c1cc(C(F)(F)F)ccc1N1CCCNCC1
EC50 [2]: 0.841 µM (active)

Cc1cc(C)n2nc(SCc3cccc(S(=O)(=O)N(C)C)c3)nc2n1
AC50 [13]: 14 µM (active) | AC50 [14]: 8.55 µM (active)

O=C(CCN1C(=O)/C(=C\c2cccc(Br)c2)SC1=S)NCCCN1CCOCC1
EC50 (BJ [7]): 1.4 µM (inconclusive) | EC50 (BJ [8]): 93.6 µM (inconclusive) | EC50 (BJ [9]): > 150 µM (not active) | EC50 [10]: 4.75 µM (active) | EC50 (BJ [12]): > 66.7 µM (inactive)

CN(CC(=O)Nc1ccccc1Cl)C(=O)CCNC(=O)Nc1ccccc1
IC50 (cells [3]): > 29.9 µM (inactive) | EC50 (cells [4]): > 29.9 µM (inactive)

CN1CCN(C(=O)c2cccn(Cc3c(Cl)cccc3Cl)c2=O)CC1
EC50 [2]: 0.668 µM (active)

CN(C)C(CNC(=O)Cc1c(Cl)cccc1Cl)c1ccccc1 (stereo unspecified)
EC50 [2]: 0.376 µM (active)

CN1CCN(S(=O)(=O)c2cccc(C(=O)Nc3ccc(Br)cc3Br)c2)CC1
IC50 [1]: 12.6 µM (active)

Cc1ccc(S(=O)(=O)Nc2ccc3c(c2)C(=O)N([C@H](C)CO)C[C@H](C)[C@H](CN(C)S(=O)(=O)c2ccccc2)O3)cc1
AC50 [15]: 13.3 µM (active)

C[C@@H]1CN([C@H](C)CO)C(=O)Cc2cc(NC(=O)Nc3ccc(C(F)(F)F)cc3)ccc2O[C@H]1CN(C)CC1CCCCC1
AC50 [15]: 3.27 µM (active)

COc1ccc(CN(C)C[C@H]2Oc3ccc(NS(=O)(=O)c4ccc(Cl)cc4)cc3CC(=O)N([C@H](C)CO)C[C@H]2C)cc1
AC50 [15]: 4.65 µM (active)

C[C@H](CO)N1C[C@H](C)[C@H](CN(C)Cc2ccc(-c3ccccc3)cc2)Oc2ccc(NC(=O)C3CCCCC3)cc2CC1=O
AC50 [15]: 2.26 µM (active)

C[C@H](CO)N1C[C@H](C)[C@H](CN(C)S(=O)(=O)c2ccc(Cl)cc2)Oc2ccc(NC(=O)Nc3ccc(C(F)(F)F)cc3)cc2CC1=O
AC50 [15]: 3.91 µM (active)

C[C@@H]1CN([C@@H](C)CO)C(=O)Cc2cc(NC(=O)C3CC3)ccc2O[C@@H]1CN(C)Cc1ccc(C(=O)Nc2ccccc2N)cc1
AC50 [15]: 3.26 µM (active)

CC(C)c1cc(C(=O)NCCc2cccs2)c(N)s1
IC50 (cells [3]): > 29.9 µM (inactive) | EC50 (cells [4]): > 29.9 µM (inactive)

C[C@H](CO)N1C[C@H](C)[C@H](CN(C)Cc2ccc(Oc3ccccc3)cc2)Oc2c(NC(=O)c3nc4ccccc4s3)cccc2C1=O
AC50 [16]: 4.87 µM (active)

COCC(=O)N1CC2(C1)CN(Cc1cc(F)ccc1F)[C@H](CO)c1[nH]c3cc(OC)ccc3c12
AC50 [16]: 13.6 µM (active)

COc1cccc(N2C(N)=NC(N)=NC2(C)C)c1
EC50 [17]: 0.355 µM (active) | EC50 (BJ [7]): > 150 µM (not active) | EC50 (BJ [8]): 5.99 µM (inconclusive) | EC50 (BJ [9]): > 150 µM (not active) | EC50 [10]: 12.6 µM (active) | EC50 (Streptococcus): 1.42 µM (active) | EC50 (BJ [12]): > 133 µM (inactive)
